Measurements as given in ChEMBL document CHEMBL4483862, “Open-source discovery of chemical leads for next-generation chemoprotective antimalarials” (2018).

Tested on: Plasmodium berghei
Experiment: Luciferase/luciferin-expressing antifolate-resistant parasites were used to infect a culture of HepG2 cells that were pre-incubated with compounds. Infected hepatocytes emit light due to the luciferase reaction. Assay results are presented as the percent inhibition of light emission compared to control. […]
Type: functional
Settings: sporozoite; for IC90: read-out: LUCIFERASE INFECTION ASSAY - IC90

Compound | IC90 [µM] | other results
COc1ccc(OC)c(NC(=O)c2cc(-c3cc(Cl)ccc3O)[nH]n2)c1 | > 8.83 | IC50 (HEPG2TOX_HILL_SLOPE 2.05, HEPG2TOX_R_SQUARED 0.718, PBLUC_HILL_SLOPE 2.04, PBLUC_R_SQUARED 0.622, read-out: LUCIFERASE INFECTION ASSAY - IC50): 4.02 µM
CCc1ccc(CN(C)C(=O)c2cccc(S(=O)(=O)Nc3ccccc3OC)c2)cc1 | > 10 | IC50 (HEPG2TOX_HILL_SLOPE 2.04, HEPG2TOX_R_SQUARED 0.142, read-out: LUCIFERASE INFECTION ASSAY - IC50): > 10 µM
Oc1ccc2ccccc2c1/C=N/Nc1nnc(-c2ncc[nH]2)c2ccccc12 | 4.64 | IC50 (HEPG2TOX_HILL_SLOPE 2.06, HEPG2TOX_R_SQUARED 0.877, PBLUC_HILL_SLOPE 10.4, PBLUC_R_SQUARED 0.915, read-out: LUCIFERASE INFECTION ASSAY - IC50): 3.76 µM
CC(C)N1/C(=C\c2ccccc2O)C(=O)c2ccccc2S1(=O)=O | > 9.61 | IC50 (HEPG2TOX_HILL_SLOPE 2.04, HEPG2TOX_R_SQUARED 0.975, PBLUC_HILL_SLOPE 1.99, PBLUC_R_SQUARED 0.616, read-out: LUCIFERASE INFECTION ASSAY - IC50): 3.26 µM
CCN1C(=O)N(Cc2cccc(OC)c2)C(=O)C12CCN(Cc1cnc(-c3ccccc3)s1)CC2 | > 6.73 | IC50 (HEPG2TOX_HILL_SLOPE 2.07, HEPG2TOX_R_SQUARED 0.932, PBLUC_HILL_SLOPE 9.26, PBLUC_R_SQUARED 0.304, read-out: LUCIFERASE INFECTION ASSAY - IC50): 5.74 µM
FC(F)(F)Oc1ccc(-c2ccc(OCCCc3ccccn3)nc2)cc1 | > 8.82 | IC50 (HEPG2TOX_HILL_SLOPE 2.06, HEPG2TOX_R_SQUARED 0.963, PBLUC_HILL_SLOPE 4.51, PBLUC_R_SQUARED 0.157, read-out: LUCIFERASE INFECTION ASSAY - IC50): 6.75 µM
CCOc1ccccc1/C=C/C(=O)OCC(=O)Nc1ccccc1-c1ccccc1 | 3.67 | IC50 (HEPG2TOX_HILL_SLOPE 2.07, HEPG2TOX_R_SQUARED 0.949, PBLUC_HILL_SLOPE 25.6, PBLUC_R_SQUARED 0.535, read-out: LUCIFERASE INFECTION ASSAY - IC50): 3.37 µM
CCN(CCNc1ncnc2sc(-c3ccccc3)cc12)c1cccc(C)c1 | 3.9 | IC50 (HEPG2TOX_HILL_SLOPE 2.04, HEPG2TOX_R_SQUARED 0.0176, PBLUC_HILL_SLOPE 12.8, PBLUC_R_SQUARED 0.373, read-out: LUCIFERASE INFECTION ASSAY - IC50): 3.29 µM
O=C(c1cncn1-c1ccccc1)N1CC=C(c2ccccc2)CC1 | > 10 | IC50 (HEPG2TOX_HILL_SLOPE 2.04, HEPG2TOX_R_SQUARED 0.78, PBLUC_HILL_SLOPE 1.11, PBLUC_R_SQUARED 0.463, read-out: LUCIFERASE INFECTION ASSAY - IC50): 4.38 µM
CNS(=O)(=O)c1ccc(C(=O)Nc2ccc(Nc3ccccc3)cc2)o1 | 1.18 | IC50 (HEPG2TOX_HILL_SLOPE 2.07, HEPG2TOX_R_SQUARED 0.347, PBLUC_HILL_SLOPE 43.9, PBLUC_R_SQUARED 0.459, read-out: LUCIFERASE INFECTION ASSAY - IC50): 1.12 µM
CC(Sc1nnc(-c2ccccc2)c(-c2ccccc2)n1)C(=O)N1CCCC1 (configuration not stated) | 1.49 | IC50 (HEPG2TOX_HILL_SLOPE 2.07, HEPG2TOX_R_SQUARED 0.202, PBLUC_HILL_SLOPE 16.4, PBLUC_R_SQUARED 0.575, read-out: LUCIFERASE INFECTION ASSAY - IC50): 1.3 µM
Cc1nc2ccccc2nc1SCC(=O)NC1CCCC(C)C1C (configuration not stated) | 8.45 | IC50 (HEPG2TOX_HILL_SLOPE 2.05, HEPG2TOX_R_SQUARED 0.851, PBLUC_HILL_SLOPE 3.81, PBLUC_R_SQUARED 0.351, read-out: LUCIFERASE INFECTION ASSAY - IC50): 4.75 µM
O=C1CC(c2ccccc2Br)c2c(ccc3ccccc23)N1 (configuration not stated) | > 9.37 | IC50 (HEPG2TOX_HILL_SLOPE 2.07, HEPG2TOX_R_SQUARED 0.801, PBLUC_HILL_SLOPE 1.69, PBLUC_R_SQUARED 0.513, read-out: LUCIFERASE INFECTION ASSAY - IC50): 4.97 µM
O=[N+]([O-])c1ccc(NN=C(Cc2ccccc2)Cc2ccccc2)c(S(=O)(=O)Nc2ccccc2Cl)c1 | > 10 | IC50 (HEPG2TOX_HILL_SLOPE 2.02, HEPG2TOX_R_SQUARED 0.983, PBLUC_HILL_SLOPE 2.86, PBLUC_R_SQUARED 0.742, read-out: LUCIFERASE INFECTION ASSAY - IC50): 6.11 µM
COc1cc(/C=C/C(=O)c2ccc(C3CCCCC3)cc2)cc(Br)c1OCC(=O)N(C)C | 3.59 | IC50 (HEPG2TOX_HILL_SLOPE 2.02, HEPG2TOX_R_SQUARED 0.972, PBLUC_HILL_SLOPE 3.75, PBLUC_R_SQUARED 0.69, read-out: LUCIFERASE INFECTION ASSAY - IC50): 2 µM
Cc1cc(SCCN)c2cc(F)ccc2n1 | > 14 | IC50 (HEPG2TOX_HILL_SLOPE 2.08, HEPG2TOX_R_SQUARED 0.947, PBLUC_HILL_SLOPE 2.61, PBLUC_R_SQUARED 0.644, read-out: LUCIFERASE INFECTION ASSAY - IC50): 6.26 µM

Compound | IC90 [µM] | other results
CCOC(=O)c1sc(N)c(C#N)c1CSc1nnc(-c2ccc(OC)c(OC)c2)o1 | 9.92 | IC50 (HEPG2TOX_HILL_SLOPE 2.07, 4.99, HEPG2TOX_R_SQUARED 0.833, 0.121, PBLUC_HILL_SLOPE 3.67, 1.56, PBLUC_R_SQUARED 0.0908, 0.540, read-out: LUCIFERASE INFECTION ASSAY - IC50): 4.06 µM
O=C(NC1CC1)c1ccc(-c2cnc3cnc(-c4ccccc4Cl)cn23)cc1 | > 8.49 | IC50 (HEPG2TOX_HILL_SLOPE 2.06, HEPG2TOX_R_SQUARED 0.921, PBLUC_HILL_SLOPE 2.15, PBLUC_R_SQUARED 0.563, read-out: LUCIFERASE INFECTION ASSAY - IC50): 4.01 µM
c1ccc(-c2csc3ncnc(Sc4ccc5nnnn5n4)c23)cc1 | > 10 | IC50 (HEPG2TOX_HILL_SLOPE 2.04, HEPG2TOX_R_SQUARED 0.855, PBLUC_HILL_SLOPE 0.945, PBLUC_R_SQUARED 0.512, read-out: LUCIFERASE INFECTION ASSAY - IC50): 7.55 µM
N#C/C(=N\Nc1cc(C(F)(F)F)ccc1OCC(F)(F)F)S(=O)(=O)c1ccccc1 | 0.397 | IC50 (HEPG2TOX_HILL_SLOPE 2.04, HEPG2TOX_R_SQUARED 0.948, PBLUC_HILL_SLOPE 1.99, PBLUC_R_SQUARED 0.732, read-out: LUCIFERASE INFECTION ASSAY - IC50): 0.131 µM
CC1=NC(C)=C(C#N)C(c2cc(Br)ccc2OC(F)F)C1C#N (configuration not stated) | 4.24 | IC50 (HEPG2TOX_HILL_SLOPE 2.06, HEPG2TOX_R_SQUARED 0.906, PBLUC_HILL_SLOPE 11.5, PBLUC_R_SQUARED 0.189, read-out: LUCIFERASE INFECTION ASSAY - IC50): 3.51 µM
CCCCn1nc(C)c(/C=C/C(=O)N(CC)CC(=O)NCc2ccc(F)cc2)c1Cl | > 10 | IC50 (HEPG2TOX_HILL_SLOPE 2.05, HEPG2TOX_R_SQUARED 0.946, PBLUC_HILL_SLOPE 2.58, PBLUC_R_SQUARED 0.346, read-out: LUCIFERASE INFECTION ASSAY - IC50): 6.71 µM
CCCn1c(NC(=O)c2ccc(CS(=O)(=O)c3ccccc3)o2)nc2ccccc21 | 4.08 | IC50 (HEPG2TOX_HILL_SLOPE 2.08, HEPG2TOX_R_SQUARED 0.973, PBLUC_HILL_SLOPE 1.97, PBLUC_R_SQUARED 0.429, read-out: LUCIFERASE INFECTION ASSAY - IC50): 1.34 µM
COc1ccc(-c2ccc3ncc(-c4ccc5c(c4)OCO5)n3n2)cc1OC | 1.1 | IC50 (HEPG2TOX_HILL_SLOPE 2.06, HEPG2TOX_R_SQUARED 0.96, PBLUC_HILL_SLOPE 2.96, PBLUC_R_SQUARED 0.768, read-out: LUCIFERASE INFECTION ASSAY - IC50): 0.524 µM
O=C(Nc1ccc(Oc2ccccc2)cc1)c1csc(C(O)c2cccc(Cl)c2)n1 (configuration not stated) | 5.62 | IC50 (HEPG2TOX_HILL_SLOPE 2.05, HEPG2TOX_R_SQUARED 0.879, PBLUC_HILL_SLOPE 3.47, PBLUC_R_SQUARED 0.401, read-out: LUCIFERASE INFECTION ASSAY - IC50): 2.99 µM
O=C(Nc1ccc2nc(Cc3ccccc3)nn2c1)c1cccc(Cl)c1 | 1.48 | IC50 (HEPG2TOX_HILL_SLOPE 2.06, HEPG2TOX_R_SQUARED 0.967, PBLUC_HILL_SLOPE 11.3, PBLUC_R_SQUARED 0.609, read-out: LUCIFERASE INFECTION ASSAY - IC50): 1.22 µM
Fc1cccc(-c2nc3ccnc(NCCc4ccccn4)c3[nH]2)c1 | 4.02 | IC50 (HEPG2TOX_HILL_SLOPE 2.04, HEPG2TOX_R_SQUARED 0.803, PBLUC_HILL_SLOPE 12.8, PBLUC_R_SQUARED 0.152, read-out: LUCIFERASE INFECTION ASSAY - IC50): 3.38 µM
CCOC(=O)c1ccc(N2CCN(C(C)c3nc(C(C)C)no3)CC2)nc1 (configuration not stated) | > 10 | IC50 (HEPG2TOX_HILL_SLOPE 2.09, HEPG2TOX_R_SQUARED 0.987, PBLUC_HILL_SLOPE 1.97, PBLUC_R_SQUARED 0.365, read-out: LUCIFERASE INFECTION ASSAY - IC50): 4.25 µM
N#C/C(=N\Nc1ccccc1Cl)S(=O)(=O)c1ccc(Cl)cc1 | 4.8 | IC50 (HEPG2TOX_HILL_SLOPE 2.02, HEPG2TOX_R_SQUARED 0.971, PBLUC_HILL_SLOPE 7.31, PBLUC_R_SQUARED 0.396, read-out: LUCIFERASE INFECTION ASSAY - IC50): 3.55 µM
CNc1nc2cnc(Nc3cccc(NC(C)=O)c3)cc2n1-c1cccc(F)c1 | > 10 | IC50 (HEPG2TOX_HILL_SLOPE 2.07, HEPG2TOX_R_SQUARED 0.855, PBLUC_HILL_SLOPE 1.72, PBLUC_R_SQUARED 0.4, read-out: LUCIFERASE INFECTION ASSAY - IC50): 3.92 µM
c1ccc(-c2ccnc3c2ccc2c(-c4ccccc4)ccnc23)cc1 | 1.74 | IC50 (HEPG2TOX_HILL_SLOPE 2.07, HEPG2TOX_R_SQUARED 0.947, PBLUC_HILL_SLOPE 9.72, PBLUC_R_SQUARED 0.861, read-out: LUCIFERASE INFECTION ASSAY - IC50): 1.39 µM
